Source: patent US20210353683A1, “ADDITIVE FOR MEDIUM FOR PROMOTING PRODUCTION OF PARACRINE FACTOR” (NISSAN CHEMICAL CORPORATION, priority 2018, published 2021)

What was measured:
Assay type in all cases: cell-based
[1] = system: Human bone marrow-derived mesenchymal stem cells (hMSC); experiment: Paracrine factor release amount test 2: Stanniocalcin-1 (STC-1) in culture supernatant by ELISA; conditions: 5 μM for 48 hr, then 48 hr in compound-free medium, relative to 2D DMSO control
Method: (§1) Human bone marrow-derived mesenchymal stem cells (hMSC, manufactured by PromoCell) were precultured by a single layer culture method (2D) using Mesenchymal Stem Cell Growth Medium 2 (manufactured by PromoCell). hMSCs were suspended in the same medium. In three-dimensional culture method (3D), hMSCs were seeded at 5×10^5 cells/2 mL/well on a cell-non-adhesive 6-well EZSPHERE plate (manufactured by AGC TECHNO GLASS, #4810-900) having a depression on the bottom surface. In 2D, hMSCs were seeded on a 6-well flat bottom plate (manufactured by Corning Incorporated, #3516) at 5×10^5 cells/2 mL/well. Continuously, compound k-1:B-1 dissolved in DMSO was added at 2 μL/well to a final concentration of 5 μM, and the mixture was cultured in an incubator at 37° C., 5% CO2 for 48 hr. […] The number of cells at the time of recovery of the culture supernatant was measured by dispersing the cells in single cells using Detach Kit (manufactured by PromoCell), suspending a part thereof in Trypan Blue (manufactured by Wako Pure Chemical Industries, Ltd.) and counting the number of viable cells using TC-20 (manufactured by BIO-RAD).
Stanniocalcin-1 (STC-1), a cytokine which is one kind of paracrine factor contained in the culture supernatant, was quantified using a plate reader. For the quantification, Human Stanniocalcin ELISA Kit (manufactured by Abcam, #ab213829) was used. […]

[2] = system: Human bone marrow-derived mesenchymal stem cells (hMSC); experiment: Paracrine factor release amount test 3: VEGF in culture supernatant by ELISA; conditions: 5 μM for 48 hr, then 48 hr in compound-free medium, relative to 2D DMSO control
Method: (§2) Human bone marrow-derived mesenchymal stem cells (hMSC, manufactured by PromoCell) were precultured by a single layer culture method (2D) using Mesenchymal Stem Cell Growth Medium 2 (manufactured by PromoCell). hMSCs were suspended in the same medium. In three-dimensional culture method (3D), hMSCs were seeded at 5×10^5 cells/2 mL/well on a cell-non-adhesive 6-well EZSPHERE plate (manufactured by AGC TECHNO GLASS, #4810-900) having a depression on the bottom surface. In 2D, hMSCs were seeded on a 6-well flat bottom plate (manufactured by Corning Incorporated, #3516) at 5×10^5 cells/2 mL/well. Continuously, compounds k-1:B-1, k-1:D-1, k-1:J-1 dissolved in DMSO were added at 2 μL/well to a final concentration of 5 μM, and the mixture was cultured in an incubator at 37° C., 5% CO2 for 48 hr. As a control, DMSO was added at a final concentration of 0.05%. After 48 hr, the medium was exchanged with a medium not containing the compound, and the cells were cultured in an incubator at 37° C., 5% CO2. After 48 hr, the culture supernatant was recovered. The number of cells at the time of recovery of the culture supernatant was measured by dispersing the cells in single cells using Detach Kit (manufactured by PromoCell), suspending a part thereof in Trypan Blue (manufactured by Wako Pure Chemical Industries, Ltd.) and counting the number of viable cells using TC-20 (manufactured by BIO-RAD).
Vascular endothelial growth factor (VEGF), a cytokine which is one kind of paracrine factor contained in the culture supernatant, was quantified using a plate reader. For the quantification, Human VEGF ELISA Kit (manufactured by Abcam, #ab100662) was used.
(§3) The concentration of VEGF in the culture supernatant was normalized by the cell count, and the relative values for the control group cultured in 2D are shown in Table 7. As a result, the secretion amount increased in both 2D culture and 3D culture by adding compounds k-1:B-1, k-1:D-1, and compound k-1:J-1. Therefrom it was clarified that the secretion of the paracrine factor can be promoted by adding the compounds k-1:B-1, k-1:D-1, and compound k-1:J-1 to the mesenchymal stem cells.

[3] = system: Human bone marrow-derived mesenchymal stem cells (hMSC); experiment: Paracrine factor release amount test 1: Angiogenin (ANG) in culture supernatant by ELISA; conditions: 5 μM for 48 hr, then 48 hr in compound-free medium, relative to 2D DMSO control
Method: as §2, with “cells/2” for “cells/2 mL/well.”
Angiogenin (ANG), a cytokine which is one kind of paracrine factor contained in the culture supernatant, was quantified using a plate reader. For the quantification, Human Angiogenin ELISA Kit (manufactured by Abcam, #ab99970) was used.
as §3, with “ANG” for “VEGF”, “4.” for “7.”

[4] = system: Human bone marrow-derived mesenchymal stem cells (hMSC); experiment: Paracrine factor release under inflammation stimulation (TNFα): MCP-1 in culture supernatant by flow cytometer; conditions: 5 μM for 48 hr, then 48 hr with 10 ng/mL TNFα only, relative to 2D DMSO control
Method: as §1, with “mL/well.” for “mL/well. Continuously, compound k-1:B-1 dissolved in DMSO was added at 2 μL/well to a final concentration of 5 μM, and the mixture was cultured in an incubator at 37° C., 5% CO2 for 48 hr.”
Monocyte Chemotactic Protein-1 (MCP-1), a cytokine which is one kind of paracrine factor contained in the culture supernatant, was quantified using a flow cytometer. The quantification analysis was performed using BD™ CBA Flex Set (manufactured by BD 558287) according to the protocol of BD. […]

[5] = system: Human bone marrow-derived mesenchymal stem cells (hMSC); experiment: Paracrine factor release under inflammation stimulation (TNFα): TSG-6 in culture supernatant by ELISA; conditions: 5 μM for 48 hr, then 48 hr with 10 ng/mL TNFα only, relative to 2D DMSO control
Method: as §1, with “k-1:J-1” for “k-1:B-1”, “hr. As a control, DMSO was added at a final concentration of 0.05%.” for “hr.”
Tumor necrosis factor-inducible gene 6 protein (TSG-6), a cytokine which is one kind of paracrine factor contained in the culture supernatant, was quantified using a plate reader. […]

Structure (SMILES)	STC-1, relative value of secretion amount (pg) per 10000 cells ([1]; 2D culture)	STC-1, relative value of secretion amount (pg) per 10000 cells ([1]; 3D culture)	VEGF, relative value of secretion amount (pg) per 10000 cells ([2]; 2D culture)	VEGF, relative value of secretion amount (pg) per 10000 cells ([2]; 3D culture)	ANG, relative value of secretion amount (pg) per 10000 cells ([3]; 2D culture)	ANG, relative value of secretion amount (pg) per 10000 cells ([3]; 3D culture)	MCP-1, relative value of secretion amount (pg) per 10000 cells ([4]; 2D culture)	MCP-1, relative value of secretion amount (pg) per 10000 cells ([4]; 3D culture)	TSG-6, relative value of secretion amount (pg) per 10000 cells ([5]; 2D culture)	TSG-6, relative value of secretion amount (pg) per 10000 cells ([5]; 3D culture)
CCC(=NNC(=O)C(C)Nc1ccccc1)c1ccc(O)c(C)c1O (racemic) [k-1:B-1]	2.67	8.95	4.40	3.59	1.34	1.38				
CCC(=NNC(=O)CNc1cccc(O)c1)c1ccc(O)c(C)c1O [k-1:D-1]				3.27		1.50				
CCC(=NNC(=O)NCc1cccc(O)c1)c1ccc(O)c(C)c1O [k-1:J-1]				6.18		1.38	0.85	1.41	1.56	3.21
